Key:
[1] = of the apparent concentration in the leaf, cited from earlier work
[2] = pure K1 in solution, direct sunlight; cited from earlier work
[3] = Degradation of K1 by sunlight; assay type: physicochemical; settings: after 4 hours exposure to bright sunlight
Experimental: Degradation of K1 begins rapidly as soon as photosynthesis ceases and the rate of degradation is directly related to the intensity of UVB. Pure K1 in solution is denatured in 20 minutes in direct sunlight. […] Aside from the degradation of K1, a further problem herbivores have is that the concentration of other fat soluble nutrients such as lutein in green vegetation may be up to 100 times higher than the concentration of vitamin K1. Lutein competes with the absorption and metabolism of vitamin K1 (see Mitchell G. V, Cook K. K., Jenkins M. Y, Grundel E International Journal of Vitamin and Nutrition Research 2001, 71: 30) as well as high levels of Vitamin E (see Tovar A, Ameho C. K. Blumberg J. B., Peterson J. W, Smith D, Booth S. Nutrition And Metabolism 2006, 3:29) and therefore with the combination of UV, the plant matrix and competition with other fat soluble vitamins, the actual amount of vitamin K1 available is much less than quoted or expected. It follows that the vitamin K requirement for animals and humans has been grossly underestimated resulting in vitamin K deficiency.
It is known that Vitamin K1 (K1) is rapidly degraded by sunlight (UV). For vitamin K1 to be a stable component of a vitamin product, it is necessary to protect it using physical and/or chemical means. It was shown that a loss of approximately 20% of K1 occurred after 4 hours exposure to bright sunlight.

CC1=C(C/C=C(\C)CCC[C@H](C)CCC[C@H](C)CCCC(C)C)C(=O)c2ccccc2C1=O [Example K1, Phylloquinone]
natural bioavailability when consumed with fat ([1]; consumed with fat): 15-16%
natural bioavailability [1]: 8-10%
time in which pure K1 is denatured [2]: 20 min
loss of K1 [3]: approximately 20%
